Results on nine compounds are retold here after patent publication US4761478A, “3-deazaguanine sulfonic acid salts” (Warner-Lambert Company, priority 1986, dated 1988).

Each structure is given as a SMILES string. Entries after “also recorded” stand apart in the source; their conditions may differ. Structures can show the parent of a compound that is named as a salt. Where two headings read alike, the source gives them in different places.

Data set [1] can be described thus: Water solubility of 3-deazaguanine and its acid addition salts (Table I). Conditions: for Solubility: 3-deazaguanine salts in water; for ml Water Needed to Dissolve / water solubility (in words): 3-deazaguanine salts; for ml Water Needed to Dissolve: 250 mg 3-deazaguanine plus one equivalent weight of the acid, water added until complete solution. The class given is physicochemical. On the procedure:
The common acids employed for the formulation of acid addition salts of pharmaceutical bases are listed in J. Pharm. […] The solubility values presented in Table I were determined as follows: 3-deazaguanine (250 mg) was suspended in a small volume of water and one equivalent weight of the acid was added with stirring. Stirring was continued and small volumes of water were added intermittently until complet solution was obtained.

Data set [2] is described as follows: Chemical stability of the sodium salt of 3-deazaguanine in aqueous solution. It counts as physicochemical. To be noted: aqueous solution of sodium salt of 3-deazaguanine.
The conditions of data set [3]: trimetrexate acid addition salts in water; data from U.S. Pat. No. 4,376,858; cited from earlier work.
Data set [4] in a line: Aqueous solution of 3-deazaguanine methanesulfonate salt remaining clear and free of precipitate. The class given is physicochemical. Conditions: in water. On the procedure: To a slurry of 24.5 g of 6-amino-1,5-dihydro-4H-imidazo-[4,5-c]pyridin-4-one (3-deazaguanine) in 250 ml of methyl alcohol was added a solution of 17.0 g of methanesulfonic acid in 50 ml of methyl alcohol. The mixture was stirred at room temperature for about 10 minutes, filtered, and the filter cake washed with methyl alcohol to give, after drying, 35.5 g (88%) of 3-deazaguanine methanesulfonate salt, mp 273°-275° C. This material produced a solution in water at a concentration of 41 mg/ml which remained clear and free of any precipitate for more than three days.

Data set [5] is described as follows: Relative solubility of m-AMSA acid addition salts (Table III). The class given is physicochemical.
Data set [6] in a line: Solubility of trimetrexate acid addition salts in water (Table II). It counts as physicochemical. Conditions: decreasing order of solubility.

As for `Nc1cc2nc[nH]c2c(=O)[nH]1` [H3 PO4], in data set [1], the Solubility was in the range of 1.9 to 2.1 mg/mL and the “ml Water Needed to Dissolve” value was 120 to 130 mL.
Regarding `Nc1cc2nc[nH]c2c(=O)[nH]1` [sodium salt], the “chemical stability in aqueous solution (in words)” value in data set [2] was “tend to begin to degrade within a few hours of formulation; also recorded: chemically unstable”.
On to `COc1cc(NCc2ccc3nc(N)nc(N)c3c2C)cc(OC)c1OC` [p-Toluenesulfonic], for which the Solubility in data set [3] was 1.73 mg/mL.
`Nc1cc2nc[nH]c2c(=O)[nH]1` [H2 SO4]: the Solubility in data set [1] fell in the range of 0.8 to 1.0 mg/mL. The “water solubility (in words)” value in data set [1] (water, listed as sulfate) is “poorly soluble”; in data set [1] (water, listed as sulfate salt), “lower solubility”. Moreover, the “ml Water Needed to Dissolve” value in data set [1] was 250 to 300 mL. In addition, in data set [1] (sulfate salt of 3-deazaguanine vs free base), the “solubility relative to the corresponding free base” value is “about one-half”.
Turning to `CS(=O)(=O)O.Nc1cc2nc[nH]c2c(=O)[nH]1` [Methanesulfonic, 3-deazaguanine methanesulfonate salt], the “time the solution remained clear and free of any precipitate” value in data set [4] (41 mg/ml) is “more than three”. Moreover, the Solubility in data set [4] (read-out: concentration of solution produced in water) was 41 mg/mL; in data set [3], 9.83 mg/mL; in data set [1] (water, read-out: Solubility) it was 50 mg/mL. In data set [5], the “solubility compared with other m-AMSA salts (in words)” value is reported as “one of the least soluble salts”. Besides, the “order of solubility among the trimetrexate salts tested” value in data set [6] was “sixth”. Also, in data set [1] (water), the “water solubility (in words)” value is recorded as “solubility advantage”. Besides, the “ml Water Needed to Dissolve” value in data set [1] came out at 5 mL.
`COc1cc(NCc2ccc3nc(N)nc(N)c3c2C)cc(OC)c1OC` [2-Naphthalenesulfonic]: in data set [3], the Solubility is 0.15 mg/mL.
On to `Nc1cc2nc[nH]c2c(=O)[nH]1` [HCl], for which, in data set [1], the Solubility is 3.3 to 3.8 mg/mL and the “ml Water Needed to Dissolve” value was 65 to 75 mL.
Consider `COc1cc(NCc2ccc3nc(N)nc(N)c3c2C)cc(OC)c1OC` [Ethoxyacetic], for which the Solubility in data set [3] was 19.5 mg/mL.
In the case of `Nc1cc2nc[nH]c2c(=O)[nH]1` [Maleic], in data set [1], the Solubility lay within 1.6 to 1.7 mg/mL and the “ml Water Needed to Dissolve” value fell in the range of 150 to 160 mL.
